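48-hour exposure; five concentrations; linearly interpolated endpoints. Definition used: TGI = concentration required for complete inhibition of growth.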
Legend:
Assay in all cases: inhibition of tumour cell growth, NCI panel, 48 h
786-0 renal = tested on: 786-0 renal
A498 renal = tested on: A498 renal
A549 NSCLC = tested on: A549 NSCLC
ACHN renal = tested on: ACHN renal
CAKI-1 renal = tested on: CAKI-1 renal
CCRF-CEM leukemia = tested on: CCRF-CEM leukemia
COLO 205 colon = tested on: COLO 205 colon
DLD-1 colon = tested on: DLD-1 colon
DMS 114 small cell lung = tested on: DMS 114 small cell lung
DMS 273 small cell lung = tested on: DMS 273 small cell lung
EKVX NSCLC = tested on: EKVX NSCLC
HCC-2998 colon = tested on: HCC-2998 colon
HCT-116 colon = tested on: HCT-116 colon
HCT-15 colon = tested on: HCT-15 colon
HL-60(TB) leukemia = tested on: HL-60(TB) leukemia
HOP-18 NSCLC = tested on: HOP-18 NSCLC
HOP-62 NSCLC = tested on: HOP-62 NSCLC
HOP-92 NSCLC = tested on: HOP-92 NSCLC
HT29 colon = tested on: HT29 colon
IGROV1 ovarian = tested on: IGROV1 ovarian
K-562 leukemia = tested on: K-562 leukemia
KM12 colon = tested on: KM12 colon
KM20L2 colon = tested on: KM20L2 colon
LOX IMVI melanoma = tested on: LOX IMVI melanoma
LXFL 529 NSCLC = tested on: LXFL 529 NSCLC
M14 melanoma = tested on: M14 melanoma
M19-MEL melanoma = tested on: M19-MEL melanoma
MALME-3M melanoma = tested on: MALME-3M melanoma
MOLT-4 leukemia = tested on: MOLT-4 leukemia
NCI-H226 lung = tested on: NCI-H226 lung
NCI-H23 lung = tested on: NCI-H23 lung
NCI-H460 lung = tested on: NCI-H460 lung
NCI-H522 lung = tested on: NCI-H522 lung
OVCAR-3 ovarian = tested on: OVCAR-3 ovarian
OVCAR-4 ovarian = tested on: OVCAR-4 ovarian
OVCAR-5 ovarian = tested on: OVCAR-5 ovarian
OVCAR-8 ovarian = tested on: OVCAR-8 ovarian
RPMI-8226 leukemia = tested on: RPMI-8226 leukemia
RXF 393 renal = tested on: RXF 393 renal
SF-268 CNS = tested on: SF-268 CNS
SF-295 CNS = tested on: SF-295 CNS
SF-539 CNS = tested on: SF-539 CNS
SK-MEL-2 melanoma = tested on: SK-MEL-2 melanoma
SK-MEL-28 melanoma = tested on: SK-MEL-28 melanoma
SK-MEL-5 melanoma = tested on: SK-MEL-5 melanoma
SK-OV-3 ovarian = tested on: SK-OV-3 ovarian
SN12C renal = tested on: SN12C renal
SNB-19 CNS = tested on: SNB-19 CNS
SNB-75 CNS = tested on: SNB-75 CNS
SNB-78 CNS = tested on: SNB-78 CNS
SR leukemia = tested on: SR leukemia
SW-620 colon = tested on: SW-620 colon
TK-10 renal = tested on: TK-10 renal
U251 CNS = tested on: U251 CNS
UACC-257 melanoma = tested on: UACC-257 melanoma
UACC-62 melanoma = tested on: UACC-62 melanoma
UO-31 renal = tested on: UO-31 renal

COc1ccc2[nH]c3c4c(cc(-c5ccccc5)c3c2c1)C(=O)N(c1ccccc1)C4=O
TGI (786-0 renal): 29.5 µM | TGI (A498 renal): > 73.8 µM | TGI (A549 NSCLC): > 100 µM | TGI (ACHN renal): > 100 µM | TGI (CAKI-1 renal): > 77.7 µM | TGI (CCRF-CEM leukemia): 15.1 µM | TGI (COLO 205 colon): > 100 µM | TGI (DLD-1 colon): > 100 µM | TGI (DMS 114 small cell lung): > 100 µM | TGI (DMS 273 small cell lung): 36.8 µM | TGI (EKVX NSCLC): > 100 µM | TGI (HCC-2998 colon): > 100 µM | TGI (HCT-116 colon): > 100 µM | TGI (HCT-15 colon): > 100 µM | TGI (HL-60(TB) leukemia): > 100 µM | TGI (HOP-18 NSCLC): > 100 µM | TGI (HOP-62 NSCLC): > 71.3 µM | TGI (HOP-92 NSCLC): 74 µM | TGI (HT29 colon): > 100 µM | TGI (IGROV1 ovarian): > 100 µM | TGI (K-562 leukemia): > 100 µM | TGI (KM12 colon): > 100 µM | TGI (KM20L2 colon): > 100 µM | TGI (LOX IMVI melanoma): > 92 µM | TGI (LXFL 529 NSCLC): 64.3 µM | TGI (M14 melanoma): > 95.4 µM | TGI (M19-MEL melanoma): > 100 µM | TGI (MALME-3M melanoma): 65 µM | TGI (MOLT-4 leukemia): > 100 µM | TGI (NCI-H226 lung): > 100 µM | TGI (NCI-H23 lung): 98.6 µM | TGI (NCI-H460 lung): > 100 µM | TGI (NCI-H522 lung): 61 µM | TGI (OVCAR-3 ovarian): 55.2 µM | TGI (OVCAR-4 ovarian): 3.56 µM | TGI (OVCAR-5 ovarian): > 100 µM | TGI (OVCAR-8 ovarian): 39.6 µM | TGI (RPMI-8226 leukemia): > 100 µM | TGI (RXF 393 renal): 69.7 µM | TGI (SF-268 CNS): 97.1 µM | TGI (SF-295 CNS): 33.7 µM | TGI (SF-539 CNS): 16.5 µM | TGI (SK-MEL-2 melanoma): > 100 µM | TGI (SK-MEL-28 melanoma): > 100 µM | TGI (SK-MEL-5 melanoma): > 100 µM | TGI (SK-OV-3 ovarian): > 93.1 µM | TGI (SN12C renal): > 100 µM | TGI (SNB-19 CNS): > 81.8 µM | TGI (SNB-75 CNS): 37.2 µM | TGI (SNB-78 CNS): > 88.3 µM | TGI (SR leukemia): 19.9 µM | TGI (SW-620 colon): > 100 µM | TGI (TK-10 renal): > 100 µM | TGI (U251 CNS): 36.7 µM | TGI (UACC-257 melanoma): > 100 µM | TGI (UACC-62 melanoma): > 90.6 µM | TGI (UO-31 renal): > 72 µM

C=CCC12CCC(=O)[C@@]1(C)CC=C(O)C2=O (stereo partly specified)
TGI (786-0 renal): > 100 µM | TGI (A498 renal): > 100 µM | TGI (A549 NSCLC): > 100 µM | TGI (ACHN renal): > 100 µM | TGI (CAKI-1 renal): > 100 µM | TGI (CCRF-CEM leukemia): > 100 µM | TGI (COLO 205 colon): > 100 µM | TGI (DLD-1 colon): > 100 µM | TGI (DMS 114 small cell lung): > 100 µM | TGI (DMS 273 small cell lung): > 100 µM | TGI (EKVX NSCLC): > 100 µM | TGI (HCC-2998 colon): > 100 µM | TGI (HCT-116 colon): > 100 µM | TGI (HCT-15 colon): > 100 µM | TGI (HL-60(TB) leukemia): > 100 µM | TGI (HOP-18 NSCLC): > 100 µM | TGI (HOP-62 NSCLC): > 100 µM | TGI (HOP-92 NSCLC): > 100 µM | TGI (HT29 colon): > 100 µM | TGI (IGROV1 ovarian): > 100 µM | TGI (KM12 colon): > 100 µM | TGI (KM20L2 colon): > 100 µM | TGI (LOX IMVI melanoma): > 100 µM | TGI (LXFL 529 NSCLC): > 100 µM | TGI (M14 melanoma): > 100 µM | TGI (M19-MEL melanoma): > 100 µM | TGI (MALME-3M melanoma): > 100 µM | TGI (MOLT-4 leukemia): > 100 µM | TGI (NCI-H226 lung): > 100 µM | TGI (NCI-H460 lung): > 100 µM | TGI (NCI-H522 lung): > 100 µM | TGI (OVCAR-3 ovarian): > 100 µM | TGI (OVCAR-4 ovarian): > 100 µM | TGI (OVCAR-5 ovarian): > 100 µM | TGI (OVCAR-8 ovarian): > 100 µM | TGI (RPMI-8226 leukemia): > 100 µM | TGI (RXF 393 renal): > 100 µM | TGI (SF-268 CNS): > 100 µM | TGI (SF-295 CNS): > 100 µM | TGI (SF-539 CNS): > 100 µM | TGI (SK-MEL-28 melanoma): > 100 µM | TGI (SK-MEL-5 melanoma): > 100 µM | TGI (SK-OV-3 ovarian): > 100 µM | TGI (SN12C renal): > 100 µM | TGI (SNB-19 CNS): > 100 µM | TGI (SNB-75 CNS): > 100 µM | TGI (SNB-78 CNS): > 100 µM | TGI (SR leukemia): > 100 µM | TGI (SW-620 colon): > 100 µM | TGI (TK-10 renal): > 100 µM | TGI (U251 CNS): > 100 µM | TGI (UACC-257 melanoma): > 100 µM | TGI (UACC-62 melanoma): > 100 µM | TGI (UO-31 renal): > 100 µM
